Measurements published in patent US5763408A, “Amino acid derivatives and application thereof” (Fuji Photo Film Co., Ltd., priority 1992, dated 1998).

Key:
B16-BL6 melanoma cells = assay: Experimental metastasis test of B16-BL6 melanoma cells in lung; assay type: in vivo, C57BL/6 female mice; settings: day 14
Experimental: Tumor metastasis inhibition activities of the compounds of the present invention were examined.
(§1) A test compound and B16-BL6 melanoma cells, which have strong metastatic property, were mixed in PBS. 0.2 ml of the mixture was intravenously injected to each of C57BL/6 female mice, of which groups each consisted of 5 mice. The mixture injected (0.2 ml) contained 5×10^4 B16-BL6 cells. On the 14th day from the administration, number of melanoma cell colonies was determined and compared with that of control mice, which were administered with PBS.

[1] = system: PRP (polyplatelet rich plasma); assay: Platelet aggregation inhibition activity (ADP-induced aggregation in PRP); assay type: cell-based; settings: for Platelet aggregation inhibition rate (%): test compound 1 mg/ml in PRP, ADP as inducer, five minutes later
Experimental: Platelet aggregation inhibition activities of Compounds 1, 2, 3, 4, 5, 6, 7 and 15 were examined.
A test compound was added to PRP (polyplatelet rich plasma, 3×10^8 cells/ml) so that the plasma contained the compound at a concentration of 1 mg/ml and the plasma was added with 10 μl of ADP as an aggregation inducing substance. Five minutes later, aggregation ratio was determined by a chronologic whole blood aggregation ability measuring apparatus to calculate platelet aggregation inhibition ratio.

[2] = system: L5178Y-ML25 T-lymphoma cells; assay: Experimental metastasis of L5178Y-ML25 T-lymphoma cells (weights of livers and spleens); assay type: in vivo, CDF1 mice; settings: day 14, in g (unit assumed); for Weight of spleen (Mean ± SD): PBS 0.23 ± 0.03, no lymphoma cell 0.12 ± 0.02; for Weight of liver (Mean ± SD): PBS 4.18 ± 0.30, no lymphoma cell 1.36 ± 0.02
Experimental: A test compound and L5178Y-ML25 T-lymphoma cells were mixed in PBS. 0.2 ml of the mixture was intravenously injected to each of CDF1 mice, of which groups each consisted of 5 mice. The mixture injected (0.2 ml) contained 4×10^4 L5178Y-ML25 T-lymphoma cells. On the 14th day from the administration, weights of livers and spleens of mice were determined and compared with those of control mice, which were administered with PBS.

colon 26/M3.1 cells = assay: Experimental metastasis test of colon 26/M3.1 cells in lung; assay type: in vivo, C57BL/6 female mice; settings: Table 13, 1000 μg/mouse, day 14, PBS control 148 ± 12
Experimental: as §1, with “colon 26/M3.1” for “B16-BL6 melanoma”, “4×10^4 colon 26/M3.1” for “5×10^4 B16-BL6”, “of” for “of melanoma cell”, “colonies in lung” for “colonies”
A segment peptide of fibronectin, Gly-Arg-Gly-Asp-Ser (GRGDS), of which tumour metastasis inhibition activities have been known, was used as a comparative sample.

[3] = Table 11, 500 μg/mouse, PBS control 114 ± 28
[4] = Table 4, 500 μg/mouse, PBS control 96 ± 14
[5] = Table 5, 1000 μg/mouse, PBS control 118 ± 15
[6] = Table 6, 500 μg/mouse, PBS control 103 ± 30
[7] = Table 7, 500 μg/mouse, PBS control 101 ± 28

Row | SMILES | Number of colonies (Mean ± SD) (B16-BL6 melanoma cells; [3]) | Number of colonies (Mean ± SD) (B16-BL6 melanoma cells; [4]) | Number of colonies (Mean ± SD) (B16-BL6 melanoma cells; [5]) | Platelet aggregation inhibition rate (%) [1] [%] | Number of colonies (Mean ± SD) (B16-BL6 melanoma cells; [6]) | Number of colonies (Mean ± SD) (B16-BL6 melanoma cells; [7]) | other results
1 | N=C(N)NCCCC(NCC(=O)NC(CC(=O)O)C(=O)O)C(=O)O (stereo not shown) [Compound 34] | 51 ± 19 | – | – | – | – | – | –
2 | CNC(=O)C(CCCNC(=N)N)NC(=O)CC(=O)NC(CC(=O)O)C(=O)O (stereo not shown) [Compound 12] | – | 58 ± 20 | 19 ± 6 | – | – | – | –
3 | N=C(N)NCCCC(NC(=O)CC(=O)NC(CC(=O)O)C(=O)O)C(=O)NCC(=O)O (stereo not shown) [Compound 19] | – | – | – | – | – | – | Number of colonies (Mean ± SD) (B16-BL6 melanoma cells; Table 8, 1000 μg/mouse, PBS control 168 ± 28): 32 ± 8; Number of colonies (Mean ± SD) (B16-BL6 melanoma cells; Table 9, 1000 μg/mouse, PBS control 168 ± 28): 32 ± 8
4 | N=C(N)NCCC[C@@H](NC(=O)CC(=O)N[C@@H](CC(=O)O)C(=O)O)C(=O)O [Compound 2] | – | 23 ± 9 | – | 53 | 72 ± 15 | 38 ± 16 | Number of colonies (Mean ± SD) (B16-BL6 melanoma cells; Table 3, 500 μg/mouse, PBS control 81 ± 23): 39 ± 13; Number of colonies (Mean ± SD) (B16-BL6 melanoma cells; Table 3, 1000 μg/mouse, PBS control 81 ± 23): 3 ± 2
5 | CNC(=O)C(CCCNC(=N)N)NC(=O)CC(=O)NC(CC(=O)O)C(=O)NC (stereo not shown) [Compound 14] | – | 94 ± 26 | 69 ± 7 | – | – | – | –
6 | N=C(N)NCCC[C@H](NC(=O)CC(=O)N[C@@H](CC(=O)O)C(=O)N[C@@H](CO)C(=O)O)C(=O)O [Compound 15] | – | – | – | 47 | 39 ± 17 | 32 ± 8 | –
7 | CNC(=O)C(CC(=O)O)NC(=O)CC(=O)NC(CCCNC(=N)N)C(=O)O (stereo not shown) [Compound 8] | – | 55 ± 12 | 24 ± 9 | – | – | – | –
8 | N=C(N)NCCC[C@H](NC(=O)CC(=O)N[C@@H](CC(=O)O)C(=O)O)C(=O)O [Compound 1] | – | 13 ± 6 | 25 ± 8 | 57 | 63 ± 23 | 19 ± 11 | IC50 ([1]; platelet aggregation, PRP, ADP): 2.4 mM; Number of colonies (Mean ± SD) (B16-BL6 melanoma cells; Table 2, 1000 μg/mouse i.v. mixed with cells, PBS control 141 ± 16): 46 ± 10; Weight of spleen (Mean ± SD) ([2]; 100 μg/mouse): 0.18 ± 0.02; Weight of liver (Mean ± SD) ([2]; 100 μg/mouse): 3.09 ± 0.78; Weight of spleen (Mean ± SD) ([2]; 500 μg/mouse): 0.20 ± 0.02; Weight of liver (Mean ± SD) ([2]; 500 μg/mouse): 2.98 ± 0.29; Weight of spleen (Mean ± SD) ([2]; 1000 μg/mouse): 0.14 ± 0.01; Weight of liver (Mean ± SD) ([2]; 1000 μg/mouse): 1.84 ± 0.36; Number of colonies (Mean ± SD) (colon 26/M3.1 cells): 31 ± 26
9 | N=C(N)NCCCC(NC(=O)C(=O)NC(CC(=O)O)C(=O)O)C(=O)O (stereo not shown) [Compound 33] | 51 ± 18 | – | – | – | – | – | –
10 | N=C(N)NCCCC(NC(=O)CNC(CC(=O)O)C(=O)O)C(=O)O (stereo not shown) [Compound 35] | 52 ± 14 | – | – | – | – | – | –
